Data published in US20070128217A1 (priority 2003, published 2007).

What was measured:
[1] = system: rabbit serum obtained by immunizing a rabbit with the SARS-CoV strain Frankfurt 1; format: binding; set-up: Binding of a rabbit serum to linear peptides / Binding of a rabbit serum to looped peptides / Rabbit serum linear peptides / Rabbit serum looped peptides / Binding of a rabbit serum to linear peptides of protein N of SARS-CoV Urbani (Rabbit serum linear peptides) / Binding of a rabbit serum to looped/cyclic peptides of protein N of SARS-CoV Urbani (Rabbit serum looped peptides): unit not given here
[2] = system: control sera (pooled serum of ten healthy LUMC hospital workers; commercial negative donor pooled serum from the Dutch bloodbank); format: binding, human; set-up: Binding of Control serum LUMC to linear peptides / Binding of Control serum Blood-bank to linear peptides / Binding of Control serum LUMC to looped peptides / Binding of Control Serum Blood-Bank to Looped peptides / Binding of Control serum LUMC to linear peptides of the protein M of SARS-CoV Urbani / Binding of Control serum Blood-bank to linear peptides of the protein M of SARS-CoV Urbani / Binding of Control serum LUMC to looped peptides of the protein M of SARS-CoV Urbani / Binding of Control Serum Blood-Bank to Looped peptides of the protein M of SARS-CoV Urbani: unit not given here
[3] = system: antibodies in sera from SARS patients (sera 1a, 1b, 2, 6, 37, 62, London, SARS-yellow, SARS-green); format: binding, human; set-up: Binding of serum 6 to linear peptides of protein X1 of SARS-CoV Urbani / Binding of serum 37 to linear peptides of protein X1 of SARS-CoV Urbani / Binding of serum 6 to looped/cyclic peptide (PEPSCAN-ELISA) / Binding of serum 37 to looped/cyclic peptide (PEPSCAN-ELISA) / Binding of serum 37 to looped/cyclic peptides of protein X1 of SARS-CoV Urbani / Binding of serum 6 to linear peptides of protein X2 / Binding of serum 37 to linear peptides of protein X2 / Binding of serum 37 to looped/cyclic peptides of protein X2 of SARS-CoV Urbani / Binding of serum 6 to linear peptides of protein M of SARS-CoV Urbani / Binding of serum 37 to linear peptides of protein M of SARS-CoV Urbani / Binding of serum 6 to looped/cyclic peptides of protein M of SARS-CoV Urbani / Binding of serum 37 to looped/cyclic peptides of protein M of SARS-CoV Urbani / Binding of serum 6 to linear peptides of protein X3 of SARS-CoV Urbani / Binding of serum 37 to linear peptides of protein X3 of SARS-CoV Urbani / Binding of serum 37 to looped/cyclic peptides of protein X3 of SARS-CoV Urbani / Binding of serum 6 to linear peptides of protein X4 of SARS-CoV Urbani / Binding of serum 37 to linear peptides of protein X4 of SARS-CoV Urbani / Binding of serum 37 to looped/cyclic peptides of protein X4 of SARS-CoV Urbani / Binding of serum 6 to linear peptides of protein X5 of SARS-CoV Urbani / Binding of serum 37 to linear peptides of protein X5 of SARS-CoV Urbani / Binding of serum 37 to looped/cyclic peptides of protein X5 of SARS-CoV Urbani / Binding of serum 6 to linear peptides of protein N of SARS-CoV Urbani / Binding of serum 37 to linear peptides of protein N of SARS-CoV Urbani / Binding of serum 6 to linear peptide (PEPSCAN-ELISA) / Binding of serum 1a to looped/cyclic peptides of protein N of SARS-CoV Urbani / Binding of serum 1b to looped/cyclic peptides of protein N of SARS-CoV Urbani / Binding of serum 2 to looped/cyclic peptides of protein N of SARS-CoV Urbani / Binding of serum 6 to looped/cyclic peptides of protein N of SARS-CoV Urbani / Binding of serum 37 to looped/cyclic peptides of protein N of SARS-CoV Urbani / Binding of serum 62 to looped/cyclic peptides of protein N of SARS-CoV Urbani / Binding of serum London to looped/cyclic peptides of protein N of SARS-CoV Urbani / Binding of serum SARS-green to looped/cyclic peptides of protein N of SARS-CoV Urbani: unit not given here

FLAFVVFLLVTLAIL
Binding of a rabbit serum to linear peptides [1]: 0.0
Binding of a rabbit serum to looped peptides [1]: 0.2
Binding of Control Serum Blood-Bank to Looped peptides [2]: 0.8
Binding of Control serum Blood-bank to linear peptides [2]: 0.4
Binding of Control serum LUMC to linear peptides [2]: 0.4
Binding of Control serum LUMC to looped peptides [2]: 0.6
Binding of serum 1a to linear peptides of protein E of SARS-CoV Urbani [3]: 0.7
Binding of serum 1a to looped/cyclic peptides of protein E of SARS-CoV Urbani [3]: 0.5
Binding of serum 1b to linear peptides of protein E of SARS-CoV Urbani [3]: 0.5
Binding of serum 1b to looped/cyclic peptides of protein E of SARS-CoV Urbani [3]: 0.5
Binding of serum 2 to linear peptides of protein E of SARS-CoV Urbani [3]: 0.2
Binding of serum 2 to looped/cyclic peptides of protein E of SARS-CoV Urbani [3]: 0.6
Binding of serum 6 to linear peptides of protein E of SARS-CoV Urbani [3]: 0.4
Binding of serum 6 to looped/cyclic peptides of protein E of SARS-CoV Urbani [3]: 0.5
Binding of serum 37 to linear peptides of protein E of SARS-CoV Urbani [3]: 0.3
Binding of serum 37 to looped/cyclic peptides of protein E of SARS-CoV Urbani [3]: 0.6
Binding of serum 62 to linear peptides of protein E of SARS-CoV Urbani [3]: 0.1
Binding of serum 62 to looped/cyclic peptides of protein E of SARS-CoV Urbani [3]: 0.7
Binding of serum London to linear peptides of protein E of SARS-CoV Urbani [3]: 0.4
Binding of serum London to looped/cyclic peptides of protein E of SARS-CoV Urbani [3]: 0.4
Binding of serum SARS-green to linear peptides of protein E of SARS-CoV Urbani [3]: 0.7
Binding of serum SARS-green to looped/cyclic peptides of protein E of SARS-CoV Urbani [3]: 0.4
Binding of serum SARS-yellow to linear peptides of protein E of SARS-CoV Urbani [3]: 0.3
Binding of serum SARS-yellow to looped/cyclic peptides of protein E of SARS-CoV Urbani [3]: 0.5

FNPETNILLNVPLRG
Rabbit serum linear peptides [1]: 0.0
Rabbit serum looped peptides [1]: 0.4
Binding of Control Serum Blood-Bank to Looped peptides of the protein M of SARS-CoV Urbani [2]: 0.8
Binding of Control serum Blood-bank to linear peptides of the protein M of SARS-CoV Urbani [2]: 0.6
Binding of Control serum LUMC to linear peptides of the protein M of SARS-CoV Urbani [2]: 0.7
Binding of Control serum LUMC to looped peptides of the protein M of SARS-CoV Urbani [2]: 0.9
Binding of serum 1a to linear peptides of protein M of SARS-CoV Urbani [3]: 0.8
Binding of serum 1a to looped/cyclic peptides of protein M of SARS-CoV Urbani [3]: 0.8
Binding of serum 1b to linear peptides of protein M of SARS-CoV Urbani [3]: 0.6
Binding of serum 1b to looped/cyclic peptides of protein M of SARS-CoV Urbani [3]: 0.8
Binding of serum 2 to linear peptides of protein M of SARS-CoV Urbani [3]: 0.5
Binding of serum 2 to looped/cyclic peptides of protein M of SARS-CoV Urbani [3]: 0.7
Binding of serum 6 to linear peptides of protein M of SARS-CoV Urbani [3]: 0.5
Binding of serum 6 to looped/cyclic peptides of protein M of SARS-CoV Urbani [3]: 0.7
Binding of serum 37 to linear peptides of protein M of SARS-CoV Urbani [3]: 0.5
Binding of serum 37 to looped/cyclic peptides of protein M of SARS-CoV Urbani [3]: 0.9
Binding of serum 62 to linear peptides of protein M of SARS-CoV Urbani [3]: 0.4
Binding of serum 62 to looped/cyclic peptides of protein M of SARS-CoV Urbani [3]: 0.8
Binding of serum London to linear peptides of protein M of SARS-CoV Urbani [3]: 0.3
Binding of serum London to looped/cyclic peptides of protein M of SARS-CoV Urbani [3]: 0.3
Binding of serum SARS-green to linear peptides of protein M of SARS-CoV Urbani [3]: 0.5
Binding of serum SARS-green to looped/cyclic peptides of protein M of SARS-CoV Urbani [3]: 0.3
Binding of serum SARS-yellow to linear peptides of protein M of SARS-CoV Urbani [3]: 0.2
Binding of serum SARS-yellow to looped/cyclic peptides of protein M of SARS-CoV Urbani [3]: 0.8

FVVFLLVTLAILTAL
Binding of a rabbit serum to linear peptides [1]: 0.2
Binding of a rabbit serum to looped peptides [1]: 0.2
Binding of Control Serum Blood-Bank to Looped peptides [2]: 0.7
Binding of Control serum Blood-bank to linear peptides [2]: 0.5
Binding of Control serum LUMC to linear peptides [2]: 0.5
Binding of Control serum LUMC to looped peptides [2]: 0.6
Binding of serum 1a to linear peptides of protein E of SARS-CoV Urbani [3]: 0.6
Binding of serum 1a to looped/cyclic peptides of protein E of SARS-CoV Urbani [3]: 0.4
Binding of serum 1b to linear peptides of protein E of SARS-CoV Urbani [3]: 0.4
Binding of serum 1b to looped/cyclic peptides of protein E of SARS-CoV Urbani [3]: 0.4
Binding of serum 2 to linear peptides of protein E of SARS-CoV Urbani [3]: 0.5
Binding of serum 2 to looped/cyclic peptides of protein E of SARS-CoV Urbani [3]: 0.4
Binding of serum 6 to linear peptides of protein E of SARS-CoV Urbani [3]: 0.3
Binding of serum 6 to looped/cyclic peptides of protein E of SARS-CoV Urbani [3]: 0.6
Binding of serum 37 to linear peptides of protein E of SARS-CoV Urbani [3]: 0.4
Binding of serum 37 to looped/cyclic peptides of protein E of SARS-CoV Urbani [3]: 0.5
Binding of serum 62 to linear peptides of protein E of SARS-CoV Urbani [3]: 0.3
Binding of serum 62 to looped/cyclic peptides of protein E of SARS-CoV Urbani [3]: 0.6
Binding of serum London to linear peptides of protein E of SARS-CoV Urbani [3]: 0.5
Binding of serum London to looped/cyclic peptides of protein E of SARS-CoV Urbani [3]: 0.4
Binding of serum SARS-green to linear peptides of protein E of SARS-CoV Urbani [3]: 0.5
Binding of serum SARS-green to looped/cyclic peptides of protein E of SARS-CoV Urbani [3]: 0.4
Binding of serum SARS-yellow to linear peptides of protein E of SARS-CoV Urbani [3]: 0.2
Binding of serum SARS-yellow to looped/cyclic peptides of protein E of SARS-CoV Urbani [3]: 0.6
